# Key:
# Experiment in all cases: relative viability (nuclei count vs DMSO), 5 days (fraction); higher = more cells survive
# [1] = test system: NCI-H596
# Method in brief: (§1)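 Medians of duplicate plates are given as relative viability. That measure is the nuclei count in treated wells divided by the count in vehicle wells. Counts were taken on 4× images of lung cancer cell lines in 1536-well plates, 5 days after pin-tool dosing the day after seeding with one drug alone or a fixed anchor-drug dose plus five library-drug doses (not always all listed) in √10 steps.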
# [2] = test system: NCI-H661
# Method in brief: as §1
# [3] = test system: NCI-H727
# Method in brief: as §1
# [4] = test system: NCI-H2342
# Method in brief: as §1
# [5] = test system: ChaGo-K-1
# Method in brief: as §1
# [6] = test system: CAL-12T
# Method in brief: as §1
# [7] = test system: NCI-H1355
# Method in brief: as §1
# [8] = test system: SW 1573
# Method in brief: as §1
# [9] = test system: NCI-H460
# Method in brief: as §1
# [10] = test system: PC-3 [JPC-3]
# Method in brief: as §1
# [11] = test system: NCI-H23
# Method in brief: as §1
# [12] = test system: NCI-H2009
# Method in brief: as §1
# [13] = test system: NCI-H2126
# Method in brief: as §1
# [14] = test system: ABC-1
# Method in brief: as §1
# [15] = test system: COR-L23
# Method in brief: as §1
# [16] = test system: 201T
# Method in brief: as §1
# [17] = test system: HOP-62
# Method in brief: as §1
# [18] = test system: NCI-H1666
# Method in brief: as §1
# [19] = test system: NCI-H1651
# Method in brief: as §1
# [20] = test system: LC-2-ad
# Method in brief: as §1
# [21] = test system: NCI-H322M
# Method in brief: as §1
# [22] = test system: NCI-H1944
# Method in brief: as §1
# [23] = test system: NCI-H2087
# Method in brief: as §1
smiles,measurement,setting,value
Oc1nc(-c2ccc(C(F)(F)F)cc2)nc2c1CSCC2 [XAV939] + Cc1nc(Nc2ncc(C(=O)Nc3c(C)cccc3Cl)s2)cc(N2CCN(CCO)CC2)n1 [Dasatinib] (partner 0.075 µM),relative viability,[1]; first compound 0.08 µM,0.584
same,relative viability,[1]; first compound 0.253 µM,0.549
same,relative viability,[1]; first compound 0.8 µM,0.708
same,relative viability,[1]; first compound 2.53 µM,0.563
same,relative viability,[2]; first compound 0.08 µM,1
same,relative viability,[2]; first compound 0.253 µM,0.851
same,relative viability,[2]; first compound 0.8 µM,0.812
same,relative viability,[2]; first compound 2.53 µM,0.637
same,relative viability,[3]; first compound 0.08 µM,0.332
same,relative viability,[3]; first compound 0.253 µM,0.452
same,relative viability,[3]; first compound 0.8 µM,0.442
same,relative viability,[3]; first compound 2.53 µM,0.405
same,relative viability,[4]; first compound 0.08 µM,0.309
same,relative viability,[4]; first compound 0.253 µM,0.285
same,relative viability,[4]; first compound 0.8 µM,0.326
same,relative viability,[4]; first compound 2.53 µM,0.254
same,relative viability,[5]; first compound 0.08 µM,0.654
same,relative viability,[5]; first compound 0.253 µM,0.639
same,relative viability,[5]; first compound 0.8 µM,0.587
same,relative viability,[5]; first compound 2.53 µM,0.56
same,relative viability,[6]; first compound 0.08 µM,0.572
same,relative viability,[6]; first compound 0.253 µM,0.401
same,relative viability,[6]; first compound 0.8 µM,0.308
same,relative viability,[6]; first compound 2.53 µM,0.211
same,relative viability,[7]; first compound 0.08 µM,0.569
same,relative viability,[7]; first compound 0.253 µM,0.495
same,relative viability,[7]; first compound 0.8 µM,0.507
same,relative viability,[7]; first compound 2.53 µM,0.356
same,relative viability,[8]; first compound 0.08 µM,0.605
same,relative viability,[8]; first compound 0.253 µM,0.506
same,relative viability,[8]; first compound 0.8 µM,0.43
same,relative viability,[8]; first compound 2.53 µM,0.241
same,relative viability,[9]; first compound 0.08 µM,0.479
same,relative viability,[9]; first compound 0.253 µM,0.533
same,relative viability,[9]; first compound 0.8 µM,0.482
same,relative viability,[9]; first compound 2.53 µM,0.467
same,relative viability,[10]; first compound 0.08 µM,1.09
same,relative viability,[10]; first compound 0.253 µM,0.899
same,relative viability,[10]; first compound 0.8 µM,0.938
same,relative viability,[10]; first compound 2.53 µM,1.05
same,relative viability,[11]; first compound 0.08 µM,0.872
same,relative viability,[11]; first compound 0.253 µM,0.7
same,relative viability,[11]; first compound 0.8 µM,0.895
same,relative viability,[11]; first compound 2.53 µM,0.722
same,relative viability,[12]; first compound 0.08 µM,0.31
same,relative viability,[12]; first compound 0.253 µM,0.271
same,relative viability,[12]; first compound 0.8 µM,0.205
same,relative viability,[12]; first compound 2.53 µM,0.208
same,relative viability,[13]; first compound 0.08 µM,0.544
same,relative viability,[13]; first compound 0.253 µM,0.403
same,relative viability,[13]; first compound 0.8 µM,0.405
same,relative viability,[13]; first compound 2.53 µM,0.33
same,relative viability,[14]; first compound 0.08 µM,0.546
same,relative viability,[14]; first compound 0.253 µM,0.534
same,relative viability,[14]; first compound 0.8 µM,0.467
same,relative viability,[14]; first compound 2.53 µM,0.415
same,relative viability,[15]; first compound 0.08 µM,0.461
same,relative viability,[15]; first compound 0.253 µM,0.424
same,relative viability,[15]; first compound 0.8 µM,0.505
same,relative viability,[15]; first compound 2.53 µM,0.444
same,relative viability,[16]; first compound 0.08 µM,0.432
same,relative viability,[16]; first compound 0.253 µM,0.385
same,relative viability,[16]; first compound 0.8 µM,0.443
same,relative viability,[16]; first compound 2.53 µM,0.366
same,relative viability,[17]; first compound 0.08 µM,0.738
same,relative viability,[17]; first compound 0.253 µM,0.659
same,relative viability,[17]; first compound 0.8 µM,0.621
same,relative viability,[17]; first compound 2.53 µM,0.396
same,relative viability,[18]; first compound 0.08 µM,0.921
same,relative viability,[18]; first compound 0.253 µM,0.801
same,relative viability,[18]; first compound 0.8 µM,0.761
same,relative viability,[18]; first compound 2.53 µM,0.744
same,relative viability,[19]; first compound 0.08 µM,0.389
same,relative viability,[19]; first compound 0.253 µM,0.366
same,relative viability,[19]; first compound 0.8 µM,0.362
same,relative viability,[19]; first compound 2.53 µM,0.401
same,relative viability,[20]; first compound 0.08 µM,0.729
same,relative viability,[20]; first compound 0.253 µM,0.446
same,relative viability,[20]; first compound 0.8 µM,0.553
same,relative viability,[20]; first compound 2.53 µM,0.595
same,relative viability,[21]; first compound 0.08 µM,0.241
same,relative viability,[21]; first compound 0.253 µM,0.254
same,relative viability,[21]; first compound 0.8 µM,0.227
same,relative viability,[21]; first compound 2.53 µM,0.22
same,relative viability,[22]; first compound 0.08 µM,0.239
same,relative viability,[22]; first compound 0.253 µM,0.248
same,relative viability,[22]; first compound 0.8 µM,0.226
same,relative viability,[22]; first compound 2.53 µM,0.218
same,relative viability,[23]; first compound 0.08 µM,1.11
same,relative viability,[23]; first compound 0.253 µM,0.623
same,relative viability,[23]; first compound 0.8 µM,0.891
same,relative viability,[23]; first compound 2.53 µM,0.689

# — the supplement of paper PMC10307832
